Here are results for one sequence from publication PMC7340446, “Optimization of PTH/PTHrP Hybrid Peptides to Derive a Long‐Acting PTH Analog (LA‐PTH)” (JBMR Plus, 2020).

Where no end group is shown, it is not given here. Bounds are passed on as bounds.

Data set [1] in a line: Peptide solubility in aqueous buffers of neutral pH. Type of data set: physicochemical. To be noted: aqueous buffers at neutral pH; approximate.
For data set [2], the system named is thyroparathyroidectomized (TPTX) rats. Description: Repeated daily administration in TPTX rats (11‐day treatment, 12‐day study). Type of data set: in vivo, rat. To be noted: daily s.c. 8.0 nmol/kg. The method, then:
TPTX rats were injected i.v. or s.c. with vehicle or vehicle containing a PTH peptide, or orally treated once daily with vehicle (medium‐chain triglyceride; Chugai Pharma Manufacturing, Tokyo, Japan) or vehicle containing alfacalcidol (Chugai Pharma Manufacturing) for 11 days. Blood samples were obtained from the tail or jugular vein immediately before and at times after injection. Urine samples at 0 to 8 hours or 8 to 24 hours, were collected in metabolic cages. sCa and uCa, serum inorganic phosphorus (sPi) and urinary phosphorus (uPi), and creatinine (uCre) were measured with an automatic analyzer (7180; Hitachi, Ltd, Chiyoda, Tokyo, Japan). Urinary deoxypyridinoline (uDpD) was measured using a Metra DPD EIA kit (DS Pharma Biomedical, Osaka, Japan), and the data were normalized to the uCre concentrations. Serum FGF23 was measured using FGF23 ELISA assay (Immunodiagnostik AG, Bensheim, Germany). Serum 1,25‐dihydroxyvitamin D [1,25(OH)2D3] levels were determined by a ELISA immunoassay (Immunodiagnostic System Ltd, Bolden, UK).
Figure 4 Effects of 11‐day treatment (12‐day study) with M‐PTH/PTHrP or alfacalcidol on serum calcium (sCa) in thyroparathyroidectomized (TPTX) rats. TPTX rats were treated for 11 days with daily s.c. injection of either vehicle or M‐PTH/PTHrP, or with daily oral alfacalcidol at the indicated doses, and sham‐surgery control rats were s.c. injected daily with vehicle. The levels of Ca in serum and urine were assessed. Blood samples were collected from the jugular vein at 8 hours (A) and at 24 hours (B) after the last treatment administration, and assessed for total sCa. Total urine was collected in metabolic cages over the time intervals of 0 to 8 hours (C), and 8 to 24 hours (D) and assessed for total urinary Ca. Data are means ± SEM; n = 6 or 5 (2.0 and 4.0 nmol/kg of M‐PTH/PTHrP); *p < 0.05 M‐PTH/PTHrP versus TPTX‐vehicle; #p < 0.05 TPTX vehicle versus sham.
Supplementary file JBM4-4-e10367-s001.pdf: Figure S1 PTH ligand‐induced cAMP‐signaling responses in GP‐2.3 cells Time course of the cAMP‐dependent luminescence response measured at 2‐minute intervals in the presence of each ligand at 10 nM (Ligand on‐phase) and B) Time course of the cAMP‐dependent luminescence response measured at 2‐minute intervals after washout of unbound ligand (Ligand wash‐out phase). GP‐2.3 cells preloaded with luciferin were treated with a concentration of PTH ligand at a concentration of 10 nM for 30 min, and cAMP‐dependent luminescence was measured at two‐minute intervals (ligand‐on phase). The cells were then removed from the plate reader, rinsed twice with media to remove unbound ligand, and then fresh media containing luciferin but lacking ligand was added and luminescence was assessed for additional 90 min (Ligand wash‐out phase). Data are means (± SEM) of four experiments, each performed in triplicate. Figure S2. In vivo calcemic actions of M‐PTH/PTHrP hybrid analogs in normal rats. The indicated M‐PTH/PTHrP hybrid analogs (sequences are shown in Figure 1) along with PTH(1–34) and PTHrP(1–36) controls, were administered at the indicated doses by i.v. injection, and at the indicated time points blood was collected from the tail vein and measured for ionized calcium (Ca^2+). Panels A‐C represent three separate experiments. Data are means ± SEM; n = 6 or 4 (80 nmol/kg of M‐PTH(1‐11)/PTHrP(12–36), M‐PTH(1‐14)/PTHrP(12–36), M‐PTH(1‐17)/PTHrP(18–36) and 1.25 nmol/kg of M‐PTH(1–30)/PTHrP(31–36)). *p < 0.05 versus Vehicle. Figure S3. Effects of 11 days treatment (12 days study) of M‐PTH/PTHrP on serum 1,25(OH) 2 Vitamin‐D3, urinary deoxypyridinoline (Dpd) and serum FGF23 in TPTX rats. Serum and urine samples obtained from the TPTX and sham control rats of the two‐week daily‐administration experiment shown in Figure 4 were analyzed by ELISA for the indicated markers. A) serum 1,25(OH)2Vitamin‐D3. B) urinary deoxypyridinoline (DpD)/Cre. C) serum FGF23. […]

For data set [3], the target named is T1, human PTHR1 (R^0 conformation) (Homo sapiens, UniProt Q03431).
T1 construct: expressed in transfected cells; host or cells: COS-7 cells (transient transfection; membranes)
T1 sequence (Q03431 27-593): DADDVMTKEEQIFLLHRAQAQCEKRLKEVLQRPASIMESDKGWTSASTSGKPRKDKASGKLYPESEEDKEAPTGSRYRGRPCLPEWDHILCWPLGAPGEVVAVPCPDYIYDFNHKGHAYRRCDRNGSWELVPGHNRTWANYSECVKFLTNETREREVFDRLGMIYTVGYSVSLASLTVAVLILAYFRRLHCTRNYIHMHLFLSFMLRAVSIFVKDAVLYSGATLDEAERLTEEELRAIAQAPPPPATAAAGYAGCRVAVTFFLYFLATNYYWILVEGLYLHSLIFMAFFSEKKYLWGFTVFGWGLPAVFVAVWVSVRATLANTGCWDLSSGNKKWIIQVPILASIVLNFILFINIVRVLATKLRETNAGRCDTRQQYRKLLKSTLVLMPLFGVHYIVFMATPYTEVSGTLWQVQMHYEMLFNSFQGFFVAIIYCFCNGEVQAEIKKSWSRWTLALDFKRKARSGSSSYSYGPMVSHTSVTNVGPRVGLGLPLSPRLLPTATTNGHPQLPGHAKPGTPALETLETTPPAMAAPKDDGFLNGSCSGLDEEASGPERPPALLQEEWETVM
In words: Competition binding to the R^0 conformation of PTHR1.

As usually defined, the IC50 is the concentration that gives 50% inhibition.

Regarding “AVAEIQLMHQRAKWIQDLRRRFFLHHLIAEIHTAEI [M‐PTH(1‐14)/PTHrP(15‐36), [Ala^1,3,12,Gln^10,Arg^11,Trp^14]‐PTH(1‐14)/PTHrP(15–36)]”, in data set [1], the “Concentration at which the peptide is poorly soluble” value is greater than 300 µg/mL. The sCa levels entry in data set [2] (8 hours after administration) was “frank hypercalcemia”. Besides, the “uCa at 0 to 8 hours and uDpD at 0 to 24 hours” value in data set [2] (after the last administration) is “increased significantly”. Besides, the IC50 in data set [3] turned out to be 2.69 ± 0.99 nM.
